Starred links: 1 amine or outer side, 2 acyl side, 3 side chain; linkers in the order of their positions; H or OH if unused. Non-standard residues stand in square brackets, D forms with d. Residues, ends and D or L forms follow the SMILES beside them. Groups on a side chain read outwards from the residue. *: point of attachment. C18 diacid = O=C(O)CCCCCCCCCCCCCCCCC(=O)*; γGlu = O=C(O)[C@H](CCC(=O)[*:2])N[*:1]; εLys = N[C@@H](CCCCN[*:1])C(=O)[*:2]; Aib = CC(C)(N)C(=O)O
Experiment: Pharmacokinetic study in dogs after oral dosing of tablets with SNAC
Format: in vivo, Beagle dogs
Conditions: dog, in vivo, po
Method in brief: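 Male beagle dogs were fasted and given a single oral tablet containing 3-4 mg test substance with 100-300 mg SNAC, in groups of 6-8. Plasma from serial EDTA blood samples was analysed by LC-MS, and t1/2, Cmax/D, tmax and AUC/D were obtained by non-compartmental analysis.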

Row | Compound | Cmax/Dose [kg/L] | AUC/Dose [kg·h/L]
1 | CC[C@H](C)[C@H](NC(=O)[C@H](Cc1ccccc1)NC(=O)[C@H](CCC(=O)O)NC(=O)[C@H](CCCNC(=N)N)NC(=O)[C@H](C)NC(=O)[C@H](C)NC(=O)[C@H](CCC(N)=O)NC(=O)[C@H](CCCCNC(=O)[C@@H](N)CCCCNC(=O)[C@@H](N)CCCCNC(=O)CC[C@H](NC(=O)CCCCCCCCCCCCCCCCC(=O)O)C(=O)O)NC(=O)[C@H](CCC(=O)O)NC(=O)[C@H](CC(C)C)NC(=O)[C@H](CC(C)C)NC(=O)[C@@H](NC(=O)[C@H](CO)NC(=O)[C@H](Cc1ccc(O)cc1)NC(=O)[C@H](CC(=O)O)NC(=O)[C@H](CO)NC(=O)[C@@H](NC(=O)[C@H](Cc1ccccc1)NC(=O)[C@@H](NC(=O)CNC(=O)[C@H](CCC(=O)O)NC(=O)C(C)(C)NC(=O)[C@@H](N)Cc1ccc(O)cc1)[C@@H](C)O)[C@@H](C)O)[C@@H](C)CC)C(=O)N[C@@H](CC(N)=O)C(=O)N[C@@H](Cc1c[nH]c2ccccc12)C(=O)N[C@@H](CC(C)C)C(=O)N[C@@H](CC(C)C)C(=O)N[C@@H](C)C(=O)NCC(=O)NCC(=O)N1CCC[C@H]1C(=O)N[C@@H](CO)C(=O)N[C@@H](CO)C(=O)O [Compound No. 20] (H-Y[Aib]EGTFTSDYSILLEK([εLys-εLys-γGlu-C18 diacid])QAAREFINWLLAGGPSS-OH) | 0.21 | 
2 | CC[C@H](C)[C@H](NC(=O)[C@H](Cc1ccccc1)NC(=O)[C@H](CCC(=O)O)NC(=O)[C@H](CCCNC(=N)N)NC(=O)[C@H](C)NC(=O)[C@H](C)NC(=O)[C@H](CCC(N)=O)NC(=O)[C@H](CCC(=O)O)NC(=O)[C@H](CCC(=O)O)NC(=O)[C@H](CC(C)C)NC(=O)[C@H](CC(C)C)NC(=O)[C@H](CCCCNC(=O)[C@@H](N)CCCCNC(=O)[C@@H](N)CCCCNC(=O)CC[C@H](NC(=O)CCCCCCCCCCCCCCCCC(=O)O)C(=O)O)NC(=O)[C@H](CO)NC(=O)[C@H](Cc1ccc(O)cc1)NC(=O)[C@H](CC(=O)O)NC(=O)[C@H](CO)NC(=O)[C@@H](NC(=O)[C@H](Cc1ccccc1)NC(=O)[C@@H](NC(=O)CNC(=O)[C@H](CCC(=O)O)NC(=O)C(C)(C)NC(=O)[C@@H](N)Cc1ccc(O)cc1)[C@@H](C)O)[C@@H](C)O)C(=O)N[C@@H](CCC(=O)O)C(=O)N[C@@H](Cc1c[nH]c2ccccc12)C(=O)N[C@@H](CC(C)C)C(=O)N[C@@H](CC(C)C)C(=O)N[C@@H](C)C(=O)NCC(=O)NCC(=O)N1CCC[C@H]1C(=O)N[C@@H](CO)C(=O)N[C@@H](CO)C(=O)NCC(=O)N[C@@H](C)C(=O)N1CCC[C@H]1C(=O)N1CCC[C@H]1C(=O)N1CCC[C@H]1C(=O)N[C@@H](CO)C(=O)O [Compound No. 40] | 0.48 | 27.0
3 | CC[C@H](C)[C@H](NC(=O)[C@H](Cc1ccccc1)NC(=O)[C@H](CCC(=O)O)NC(=O)[C@H](Cc1c[nH]cn1)NC(=O)[C@H](C)NC(=O)[C@H](C)NC(=O)[C@H](CCC(N)=O)NC(=O)[C@H](CCCCNC(=O)[C@@H](N)CCCCNC(=O)[C@@H](N)CCCCNC(=O)CC[C@H](NC(=O)CCCCCCCCCCCCCCCCC(=O)O)C(=O)O)NC(=O)[C@H](CCC(=O)O)NC(=O)[C@H](CC(C)C)NC(=O)[C@H](CC(C)C)NC(=O)[C@@H](NC(=O)[C@H](CO)NC(=O)[C@H](Cc1ccc(O)cc1)NC(=O)[C@H](CC(=O)O)NC(=O)[C@H](CO)NC(=O)[C@@H](NC(=O)[C@H](Cc1ccccc1)NC(=O)[C@@H](NC(=O)CNC(=O)[C@H](CCC(=O)O)NC(=O)C(C)(C)NC(=O)[C@@H](N)Cc1ccc(O)cc1)[C@@H](C)O)[C@@H](C)O)[C@@H](C)CC)C(=O)N[C@@H](CCC(=O)O)C(=O)N[C@@H](Cc1c[nH]c2ccccc12)C(=O)N[C@@H](CC(C)C)C(=O)N[C@@H](CC(C)C)C(=O)N[C@@H](C)C(=O)NCC(=O)NCC(=O)N1CCC[C@H]1C(=O)N[C@@H](CO)C(=O)N[C@@H](CO)C(=O)NCC(=O)N[C@@H](C)C(=O)N1CCC[C@H]1C(=O)N1CCC[C@H]1C(=O)N1CCC[C@H]1C(=O)N[C@@H](CO)C(=O)O [Compound No. 30] (H-Y[Aib]EGTFTSDYSILLEK([εLys-εLys-γGlu-C18 diacid])QAAHEFIEWLLAGGPSSGAPPPS-OH) | 0.24 | 6.5
4 | CC[C@H](C)[C@H](NC(=O)[C@H](Cc1ccccc1)NC(=O)[C@H](CCC(=O)O)NC(=O)[C@H](CCC(=O)O)NC(=O)[C@H](C)NC(=O)[C@H](C)NC(=O)[C@H](CCC(N)=O)NC(=O)[C@H](CCCCNC(=O)[C@@H](N)CCCCNC(=O)[C@@H](N)CCCCNC(=O)CC[C@H](NC(=O)CCCCCCCCCCCCCCCCC(=O)O)C(=O)O)NC(=O)[C@H](CCC(=O)O)NC(=O)[C@H](CC(C)C)NC(=O)[C@H](CC(C)C)NC(=O)[C@@H](NC(=O)[C@H](CO)NC(=O)[C@H](Cc1ccc(O)cc1)NC(=O)[C@H](CC(=O)O)NC(=O)[C@H](CO)NC(=O)[C@@H](NC(=O)[C@H](Cc1ccccc1)NC(=O)[C@@H](NC(=O)CNC(=O)[C@H](CCC(=O)O)NC(=O)C(C)(C)NC(=O)[C@@H](N)Cc1ccc(O)cc1)[C@@H](C)O)[C@@H](C)O)[C@@H](C)CC)C(=O)N[C@@H](CC(N)=O)C(=O)N[C@@H](Cc1c[nH]c2ccccc12)C(=O)N[C@@H](CC(C)C)C(=O)N[C@@H](CC(C)C)C(=O)N[C@@H](C)C(=O)NCC(=O)NCC(=O)N1CCC[C@H]1C(=O)N[C@@H](CO)C(=O)N[C@@H](CO)C(=O)NCC(=O)N[C@@H](C)C(=O)N1CCC[C@H]1C(=O)N1CCC[C@H]1C(=O)N1CCC[C@H]1C(=O)N[C@@H](CO)C(=O)O [Compound No. 25] (H-Y[Aib]EGTFTSDYSILLEK([εLys-εLys-γGlu-C18 diacid])QAAEEFINWLLAGGPSSGAPPPS-OH) | 0.30 | 
5 | CC[C@H](C)[C@H](NC(=O)[C@H](Cc1ccccc1)NC(=O)[C@H](CCC(=O)O)NC(=O)[C@H](CCC(N)=O)NC(=O)[C@H](C)NC(=O)[C@H](C)NC(=O)[C@H](CCC(N)=O)NC(=O)[C@H](CCCCNC(=O)[C@@H](N)CCCCNC(=O)[C@@H](N)CCCCNC(=O)CC[C@H](NC(=O)CCCCCCCCCCCCCCCCC(=O)O)C(=O)O)NC(=O)[C@H](CCC(=O)O)NC(=O)[C@H](CC(C)C)NC(=O)[C@H](CC(C)C)NC(=O)[C@@H](NC(=O)[C@H](CO)NC(=O)[C@H](Cc1ccc(O)cc1)NC(=O)[C@H](CC(=O)O)NC(=O)[C@H](CO)NC(=O)[C@@H](NC(=O)[C@H](Cc1ccccc1)NC(=O)[C@@H](NC(=O)CNC(=O)[C@H](CCC(=O)O)NC(=O)C(C)(C)NC(=O)[C@@H](N)Cc1ccc(O)cc1)[C@@H](C)O)[C@@H](C)O)[C@@H](C)CC)C(=O)N[C@@H](CC(N)=O)C(=O)N[C@@H](Cc1c[nH]c2ccccc12)C(=O)N[C@@H](CC(C)C)C(=O)N[C@@H](CC(C)C)C(=O)N[C@@H](C)C(=O)NCC(=O)NCC(=O)N1CCC[C@H]1C(=O)N[C@@H](CO)C(=O)N[C@@H](CO)C(=O)NCC(=O)N[C@@H](C)C(=O)N1CCC[C@H]1C(=O)N1CCC[C@H]1C(=O)N1CCC[C@H]1C(=O)N[C@@H](CO)C(=O)O [Compound No. 24] (H-Y[Aib]EGTFTSDYSILLEK([εLys-εLys-γGlu-C18 diacid])QAAQEFINWLLAGGPSSGAPPPS-OH) | 0.29 | 

Source: patent US20230272029A1, “CO-AGONISTS AT GLP-1 AND GIP RECEPTORS SUITABLE FOR ORAL DELIVERY” (Novo Nordisk A/S, priority 2020, published 2023)
